One test has as its system TWEAK-Fn14 signaling. Briefly: Cell based NF-κB luciferase reporter assay, Fn14-NF-κB-Luc cells stimulated with TWEAK. Set-up: species or system human. As to the method: NF-κB luciferase reporter Assay. The capacity of sTWEAK or sTWEAK variants to activate Fn14 signaling was evaluated using engineered reporter cell lines that express luciferase upon NF-κB activation. Two reporter cell lines were utilized for these experiments. HEK293 NF-κB luciferase (courtesy of Dr. Jeff Winkles) were generated by transfecting HEK293 cells with a reporter plasmid containing 5 copies of a consensus NF-κB binding site upstream of a minimal CMV promoter driving expression of firefly luciferase. The second cell line, designated HEK293 NF-κB luciferase Fn14 FL, was generated by stably transfecting the HEK293 NF-κB luciferase cell line with full length Fn14. To assay the binding of sTWEAK or sTWEAK variants to Fn14, reporter cells were seeded in tissue culture treated white 96-well plates at 1×10^4 cells/well in 80 μL Opti-MEM media (Invitrogen) and incubated for 48 hr at 37° C. After 48 hr incubation, 20 μL of 5× purified recombinant TWEAK (Peprotech Inc.; 150 ng/mL) in 1 mg/mL BSA in PBS was added to each well and incubated for 5 hr at 37° C. as positive control. Similarly, equivalent amounts of sTWEAK or sTWEAK variant prepared via IVTTas determined using ELISA assay described above was added in 20 μl. IVTT solution lacking a cDNA template in 1 mg/mL BSA in PBS and 1 mg/mL BSA in PBS alone was used as an additional control. At the end of 5 hr incubation, the luminescent signal was determined using Bright-Glo assay kit (Promega, Madison, Wis.) according to the manufacturer's instructions.
Briefly, Fn14-NF-κB-Luc reporter cells, (Fn14 overexpressing HEK293 NF-κB luciferase cells), were seeded in tissue culture treated white 96-well plates at 1×10^4 cells/well in 80 μL Opti-MEM media (Invitrogen) and incubated for 48 hr at 37° C. […] Luminescent signal was determined using Bright-Glo assay kit (Promega, Madison, Wis.) according to the manufacturer's instructions and normalized to negative control. […] IC50 values for dose response curve were determined using the curve fitting functionality of GraphPad Prism software.
A general note: In a reporter assay the amount or activity of a reporter protein is the signal.

The next test addresses T1, Fn14-TWEAK binding (Homo sapiens, UniProt Q9NP84).
T1 construct: the human Fc fragment-tagged Fn14 extracellular domain (R&D Systems) was captured; purchased R&D Systems (Fn14-Fc); Peprotech (recombinant TWEAK)
T1 sequence (Q9NP84 28-80 limits assumed): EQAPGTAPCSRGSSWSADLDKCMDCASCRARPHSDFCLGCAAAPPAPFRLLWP
Briefly: Double sandwich ELISA small molecule screening of TWEAK binding to captured Fn14-Fc. In a few lines:
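Fn14-Fc (human Fc-tagged extracellular domain) captured on anti-human Fc wells; compounds at 25 μM (0.125% DMSO) preincubated 2 h at room temperature, then TWEAK added to 500 pg/mL final for 2 h. Bound TWEAK detected with biotinylated anti-TWEAK antibody, HRP-streptavidin and chemiluminescence; binding reduction calculated from a per-plate recombinant TWEAK standard curve.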

Where two headings read alike, the source gives them in different places.

In general, IC50 refers to the concentration at which inhibition is half-maximal.

In the case of `O=C(c1cn(-c2cccc(Cl)c2)nn1)N1CCSCC1` [Compound L524-0366], the “inhibition of TWEAK-induced NF-κB driven luciferase activity” value in the test on TWEAK-Fn14 signaling (Fn14-NF-κB-Luc cells, 20 μM) is “significant inhibition”. Further, the IC50 in the test with TWEAK-Fn14 signaling (Homo sapiens, Fn14-NF-κB-Luc cells stimulated with TWEAK, 0.75 μM to 250 μM, read-out: IC50, TWEAK-Fn14 stimulated luciferase induction) came to 7.8 µM. Moreover, in the test on TWEAK-Fn14 signaling (TWEAK/Fn14-NF-κB-Luc versus TNFα/NF-κB-Luc IC50), the “fold higher inhibitory activity against TWEAK-Fn14 signaling” value is listed as “approximately 5 fold”. Also, the inhibition at 25 µM turned out to be 16.9% on Fn14-TWEAK binding (Table 4, second screening iteration, 25 μM, average of duplicate, read-out: % Reduction in TWEAK Binding, Average); 18.8% on Fn14-TWEAK binding (Table 4, second screening iteration, 25 μM, replicate 1, read-out: % Reduction in TWEAK Binding, Data 1); 14.9% on Fn14-TWEAK binding (Table 4, second screening iteration, 25 μM, replicate 2, read-out: % Reduction in TWEAK Binding, Data 2); 16.9% at Fn14-TWEAK binding (Table 5, 25 μM, average of duplicate, read-out: % Reduction in TWEAK Binding, Average); 18.8% at Fn14-TWEAK binding (Table 5, 25 μM, replicate 1, read-out: % Reduction in TWEAK Binding, Data 1); 14.9% at Fn14-TWEAK binding (Table 5, 25 μM, replicate 2, read-out: % Reduction in TWEAK Binding, Data 2).

(Values after US9238034B2, “FN14 antagonists and therapeutic uses thereof” (THE TRANSLATIONAL GENOMICS RESEARCH INSTITUTE, priority 2013, dated 2016).)
